The values that follow come from patent US20020198177A1, “Coenzyme Q and EPA” (priority 2001, published 2002).

In experiment [1] the test system is mantle cell lymphoma. Put plainly: Case study: high-dose ethyl eicosapentaenoate in a patient with mantle cell lymphoma. The experiment is classed as in vivo, human. The text has this: The following example reports that cancer developed in an individual who had been taking ethyl-EPA at a regular dose of 1 g/d. This individual had also at times in the past three years taken 2 g/d EPA but still cancer developed. […] Doses of 3 g/d to 30 g/d, and preferably of 5 g/d or 20 g/d will therefore be useful in the treatment of cancer. The EPA may be provided in any assimilable form. However, the triglyceride form and the ethyl-ester form are relatively non-irritant to the gastrointestinal tract and are the preferred forms for delivering these large amounts by mouth although other forms could be used for the intravenous route of administration. The EPA for oral administration should be in the purest form possible, at least 70% pure, preferably 80-90% pure, and very preferably 95% or more pure. Docosahexaenoic acid and linoleic acid should each be present at less than 5% and preferably less than 1%. The EPA may be formulated in capsules, liquids or emulsions such as may be required to make it appropriate for either oral or intravenous administration.
A person who had been taking 1 g/d of ethyl eicosapentaenoate as a supplement for general health reasons developed a form of non-Hodgkin's lymphoma called a mantle cell lymphoma. This is characterised by an over-production of a cell cycle controlling factor known as cyclin D1. Cyclin D1 appears to force the cells to divide continually. […] However, high doses are required to achieve the necessary levels in the cancer tissue.
(§1) It was therefore decided to give the patient 10 g/d of 96% pure ethyl eicosapentaenoate containing less than 1% docosahexaenoic acid and no detectable linoleic acid.

Experiment [2] deals with cyclin D1. The following applies: in vitro and in animal models of cancer; cited from earlier work.
In experiment [3] the test system is cancerous cells. As to conditions: cited from earlier work.
The format of experiment [4] is in vivo, human.
From the text: as §1
No certain cause of the abnormal rhythm was identified. One possibility may have been the high intake of EPA. EPA at very high doses might theoretically give rise to oxygenated metabolites which could disturb cardiac rhythm. EPA at low doses seems to be strongly anti-arrhythmic but it is known that many anti-arrhythmic drugs can have pro-arrhythmic actions at certain doses.
Ubiquinone may have favourable effects on cardiac rhythm (R B Singh et al, Cardiovascular Drugs and Therapy 1998; 12: 347-353). 120 mg/day was given to the patient taking high dose EPA. […] The ubiquinone was then stopped after ten days.

[5] abbreviates: ubiquinone 120 mg/day added to high dose EPA, second day.

Molecules are shown by their SMILES.

With `CC/C=C\C/C=C\C/C=C\C/C=C\C/C=C\CCCC(=O)OCC` [ethyl eicosapentaenoate], the “effect on the patient's palpable tumours” value in experiment [1] (10 g/d of 96% pure ethyl eicosapentaenoate, sixth day of treatment, person) was “began to regress”. Besides, in experiment [1] (dose of EPA increased to 10 g/day, within a matter of days), the cancer size result is “reduced dramatically in size”. The “management of cancer at low dose” value in experiment [1] (doses of EPA of 2 g/day or less, cancer developed on 1 g/d, at times 2 g/d) is “likely to be ineffective”. For the same compound, in experiment [2], the “synthesis of cyclin D1” value is “able to inhibit the synthesis of cyclin D1”. Besides, in experiment [3], the “growth of cancerous cells” value is recorded as “could inhibit the growth of cancerous cells”.
For the compound `COC1=C(OC)C(=O)C(C/C=C(\C)CC/C=C(\C)CC/C=C(\C)CC/C=C(\C)CC/C=C(\C)CC/C=C(\C)CC/C=C(\C)CC/C=C(\C)CC/C=C(\C)CCC=C(C)C)=C(C)C1=O` [ubiquinone], in experiment [4] (setting [5]), the “heart rate and rhythm” value is reported as “returned to normal”; the “heart rate at rest” value lay within 65 to 75 min⁻¹. The “cardiac rate and rhythm abnormality on continued treatment” value in experiment [4] (ubiquinone plus high dose of EPA over a period of four months) is “no return of the cardiac rate and rhythm abnormality”. Besides, the “heart rate and rhythm on reintroducing ubiquinone” value in experiment [4] (ubiquinone reintroduced, high dose EPA continued) was “normal rate and rhythm came back”. In addition, the “heart rate and rhythm after stopping ubiquinone” value in experiment [4] (ubiquinone stopped after ten days, four days after stopping, high dose EPA continued) was “variability of rate and rhythm returned”.
